Data published in US20230330093A1, “APPLICATION OF NITROGEN-CONTAINING SATURATED HETEROCYCLIC COMPOUND” (SHANGHAI PHARMACEUTICALS HOLDING CO., LTD., priority 2020, published 2023).
Several values for one entry are separate records, joined by “and”; a condition that tells them apart may be missing. Equal entries are not always repeated.

Tests used:
[1] = system: rhesus monkeys with spontaneous chronic kidney disease; experiment: Effect on cystatin C (CysC), 8-week administration; assay type: in vivo, Macaca mulatta (Rhesus Macaque)
Procedure: In the trial, animals were brought in three stages. […] Glomerular filtration rate […]: creatinine (Cr-P), urea nitrogen (BUN) and cystatin (CysC) were detected, and the eGFR value was obtained by calculation. It was performed once before the administration and once every two weeks after the administration. […] ELISA kit was used for NT-proBNP test. [table]

[2] = system: rhesus monkeys with spontaneous chronic kidney disease; experiment: Effect on blood pressure (SBP, DBP, MBP, HR) after anesthesia, 8-week administration; assay type: in vivo, Macaca mulatta (Rhesus Macaque); details: for DBP / SBP: 1 mg/kg qd (n = 5)
Excerpt: In the trial, animals were brought in three stages.
Route of administration: Oral administration.
After anesthesia, the animal was placed in a supine position. The left upper arm was shaved clean, and a suitable size cuff was tied according to the standard. The blood oxygen probe was clamped on the animal's finger or toe (except for the left hand), and the red light-sensitive surface was on the side of the finger pad. The blood pressure of the animal was continuously measured for 3 times in the automatic mode with an interval of 1 min. If the difference of DBP, SBP and MBP of blood pressure measured more than three times was not significant (the difference between the highest value and the lowest value was less than 15 mmHg), the measurement was completed.
Testing equipment: GE B40i electrophysiological monitor.
See Table 16 for the effects of administration of each administration group on blood pressure. The blood pressure test of primates required anesthesia, so it was necessary to control the variability of heart rate at various time points to make statistics.

[3] = 1 mg/kg qd (n=5), after W8 administration, p<0.05 vs placebo

For `COC(=O)NCCCn1nc([C@@H](C)N(C(=O)[C@H]2CNCCO2)C2CC2)c2ccc(C)nc21.O=C(O)C[C@H](O)C(=O)O` [malate of compound of Formula I], the CysC ([1]; 1 mg/kg (n = 5), 2 weeks) was 1.66 mg/L and 1.64 mg/L and 1.83 mg/L and 1.55 mg/L, the CysC ([1]; 1 mg/kg (n = 5), 2 weeks, mean) was 1.70 ± 0.12 mg/L and the CysC ([1]; 1 mg/kg (n = 5), 4 weeks) was 1.49 mg/L and 1.43 mg/L and 1.57 mg/L and 1.76 mg/L and 1.50 mg/L. The CysC ([1]; 1 mg/kg (n = 5), 4 weeks, mean) was 1.55 ± 0.13 mg/L, the CysC ([1]; 1 mg/kg (n = 5), 6 weeks) was 1.48 mg/L and 1.61 mg/L and 1.62 mg/L and 1.68 mg/L and 1.50 mg/L and the CysC ([1]; 1 mg/kg (n = 5), 6 weeks, mean) was 1.58 ± 0.08 mg/L. For the same compound, the CysC ([1]; 1 mg/kg (n = 5), 8 weeks) was 1.51 mg/L and 1.59 mg/L and 1.62 mg/L and 1.77 mg/L, the CysC ([1]; 1 mg/kg (n = 5), 8 weeks, mean) was 1.60 ± 0.11 mg/L and the CysC ([1]; 1 mg/kg (n = 5), Baseline, single animals and Mean ± SD) was 1.67 mg/L and 1.80 mg/L and 1.72 mg/L and 1.84 mg/L and 1.75 mg/L. The CysC ([1]; 1 mg/kg (n = 5), Baseline, single animals and Mean ± SD, mean) was 1.76 ± 0.07 mg/L, the CysC ([1]; 2 mg/kg (n = 5), 2 weeks) was 1.44 mg/L and 1.97 mg/L and 1.71 mg/L and 1.73 mg/L and 1.51 mg/L and the CysC ([1]; 2 mg/kg (n = 5), 2 weeks, mean) was 1.67 ± 0.21 mg/L. For the same compound, the CysC ([1]; 2 mg/kg (n = 5), 4 weeks) was 1.31 mg/L and 1.77 mg/L and 1.56 mg/L and 1.43 mg/L and 1.47 mg/L, the CysC ([1]; 2 mg/kg (n = 5), 4 weeks, mean) was 1.51 ± 0.17 mg/L and the CysC ([1]; 2 mg/kg (n = 5), 6 weeks) was 1.39 mg/L and 1.76 mg/L and 1.65 mg/L and 1.54 mg/L and 1.42 mg/L. The CysC ([1]; 2 mg/kg (n = 5), 6 weeks, mean) was 1.55 ± 0.16 mg/L, the CysC ([1]; 2 mg/kg (n = 5), 8 weeks) was 1.36 mg/L and 1.68 mg/L and 1.58 mg/L and 1.55 mg/L and 1.47 mg/L and the CysC ([1]; 2 mg/kg (n = 5), 8 weeks, mean) was 1.53 ± 0.12 mg/L. The CysC ([1]; 2 mg/kg (n = 5), Baseline, single animals and Mean ± SD) was 1.57 mg/L and 1.87 mg/L and 1.72 mg/L and 1.69 mg/L and 1.56 mg/L, the CysC ([1]; 2 mg/kg (n = 5), Baseline, single animals and Mean ± SD, mean) was 1.68 ± 0.13 mg/L and the CysC ([1]; 5 mg/kg (n = 6), 2 weeks) was 1.63 mg/L and 1.45 mg/L and 2.63 mg/L and 1.46 mg/L and 1.64 mg/L. For the same compound, the CysC ([1]; 5 mg/kg (n = 6), 2 weeks, mean) was 1.74 ± 0.44 mg/L, the CysC ([1]; 5 mg/kg (n = 6), 4 weeks) was 1.68 mg/L and 1.73 mg/L and 1.64 mg/L and 2.41 mg/L and 1.36 mg/L and 1.44 mg/L and the CysC ([1]; 5 mg/kg (n = 6), 4 weeks, mean) was 1.71 ± 0.37 mg/L. The CysC ([1]; 5 mg/kg (n = 6), 6 weeks) was 1.59 mg/L and 1.47 mg/L and 1.80 mg/L and 2.45 mg/L and 1.40 mg/L and 1.46 mg/L, the CysC ([1]; 5 mg/kg (n = 6), 6 weeks, mean) was 1.70 ± 0.40 mg/L and the CysC ([1]; 5 mg/kg (n = 6), 8 weeks) was 1.46 mg/L and 1.69 mg/L and 1.66 mg/L and 2.29 mg/L and 1.50 mg/L and 1.39 mg/L. The CysC ([1]; 5 mg/kg (n = 6), 8 weeks, mean) was 1.67 ± 0.33 mg/L, the CysC ([1]; 5 mg/kg (n = 6), Baseline, single animals and Mean ± SD) was 1.49 mg/L and 1.63 mg/L and 1.61 mg/L and 2.52 mg/L and 1.47 mg/L and 1.55 mg/L and the CysC ([1]; 5 mg/kg (n = 6), Baseline, single animals and Mean ± SD, mean) was 1.71 ± 0.40 mg/L. The DBP ([2]; 4 weeks) was 51 mmHg and 54 mmHg and 65 mmHg, the SBP ([2]; 4 weeks) was 104 mmHg and 109 mmHg and 124 mmHg and the DBP ([2]; 4 weeks, mean) was 61 ± 12 mmHg. The SBP ([2]; 4 weeks, mean) was 118 ± 17 mmHg, the DBP ([2]; 8 weeks) was 53 mmHg and 49 mmHg and the SBP ([2]; 8 weeks) was 94 mmHg and 89 mmHg and 114 mmHg. The DBP ([2]; 8 weeks, mean) was 60 ± 12 mmHg, the SBP ([2]; 8 weeks, mean) was 111 ± 20 mmHg and the DBP ([2]; Baseline) was 54 mmHg and 56 mmHg and 60 mmHg and 59 mmHg and 70 mmHg. The DBP ([2]; Baseline, mean) was 60 ± 6 mmHg, the SBP ([2]; Baseline, single animals and Mean ± SD) was 101 mmHg and 105 mmHg and 125 mmHg and 121 mmHg and 129 mmHg and the SBP ([2]; Baseline, single animals and Mean ± SD, mean) was 116 ± 13 mmHg. For the same compound, the “DBP reduced by on average, compared with the baseline” value [2, 3] was 5±4 mmHg and the “SBP reduced by on average, compared with the baseline” value [2, 3] was 11±4 mmHg.
